The values that follow come from patent US4162253A, “Acaricidal agents” (Pfizer Inc., priority 1975, dated 1979).

For the assay, the system named is Adult Boophilus microplus. The assay is described as follows: Topical application test on fully engorged adult Boophilus microplus ticks; overall reduction in anticipated reproduction (eggs laid and hatching). The format is in vivo. To be noted: Rhipicephalus microplus, read-out: In Vitro Activity (topical application) vs. Adult Boophilus microplus % Effect; for inhibition at 0.5 µg/tick: 0.5 μg/tick; for inhibition at 1 µg/tick: 1 μg/tick; for inhibition at 2 µg/tick: 2 μg/tick; for inhibition at 4 µg/tick: 4 μg/tick; for inhibition at 8 µg/tick: 8 μg/tick; for inhibition at 10 µg/tick: 10 μg/tick. The method, then: In one test, five freshly collected, fully engorged Boophilus microplus adult ticks are used for each acaricidal compound. Using a micro-pipette, 10 micro-liters of a solution containing 10 micro-grams of the acaricidal compound in ethanol or acetone, is applied to the dorsal surface of each of the ticks. The treated ticks are placed in weighted 1"×2" glass vials, weighted and stored at 26° C. and 80% relative humidity in plastic boxes for two weeks. The ticks are then removed from the vials and the vials weighted to give the weight of eggs laid by the ticks. Any reduction in the egg laying of the treated ticks is caculated as a percentage of the eggs laid by untreated control ticks.
The eggs are returned to the incubator for a further 3 weeks after which time the percentage of eggs hatching is estimated.
The percentage effect is calculated as the overall reduction in the anticipated reproduction of the ticks using the weight of eggs laid and the percentage of eggs hatching.
The test may be repeated using smaller amounts of the acaricidal compound for sufficiently active compounds.
The activity of many of the compounds of the Examples detailed hereinafter against the tick Boophilus microplus has been determined.

Molecules are shown by their SMILES.

Consider `CCCCCCCCCCCCCCCCC[N+]1=C2SC=C(c3ccccc3)N2CCCC1` [Example 32], for which the inhibition at 0.5 µg/tick came to 0%, the inhibition at 1 µg/tick is 12%, the inhibition at 2 µg/tick was found to be 66% and the inhibition at 4 µg/tick turned out to be 94%. The inhibition at 8 µg/tick was determined as 95% and the inhibition at 10 µg/tick turned out to be 100%.

As to `CCCCCCCCCCCCCCCC[N+]1=C2SC(c3ccccc3)=CN2CCCC1` [Example 34], the inhibition at 10 µg/tick came out at 32%.

Regarding `CCCCCCCCCCCCCCCC[N+]1=C2SC3=C(CCCC3)N2CCCC1` [Example 35, 9-hexadecyl-2,3-tetramethylene-5,6,7,8-tetrahydrothiazolo[3,2-a][1,3] diazepinium bromide], the inhibition at 0.5 µg/tick is 0%, the inhibition at 1 µg/tick came to 8%, the inhibition at 2 µg/tick was determined as 13% and the inhibition at 4 µg/tick came out at 70%. The inhibition at 8 µg/tick is 100% and the inhibition at 10 µg/tick came out at 100%.

Turning to `CCCCCCCCCCCCCCCC[N+]1=C2SC=CN2CCCC1` [Example 36], the inhibition at 10 µg/tick worked out at 26%.

Take `CCCCCCCCCCCC[N+]1=C2SC=C(c3ccccc3)N2CCCC1` [Example 37]: the inhibition at 10 µg/tick was 87%.

For `CCCCCCCCCCCC[N+]1=C2SC=C(C)N2CCCC1` [Example 38], the inhibition at 10 µg/tick was found to be 30%.

In the case of `CCCCCCCCCCCCCCCC[N+]1=C2SC=C(c3ccc(F)cc3)N2CCCC1` [Example 41], the inhibition at 0.5 µg/tick was 5%, the inhibition at 1 µg/tick is 18%, the inhibition at 2 µg/tick worked out at 18% and the inhibition at 4 µg/tick was determined as 16%. Besides, the inhibition at 8 µg/tick was 43% and the inhibition at 10 µg/tick amounted to 92%.

Turning to `CCCCCCCCCCCCCCCC[N+]1=C2SC(C)=C(c3ccccc3)N2CC1` [Example 42, 7-cetyl-2-methyl-3-phenyl--5,6-dihydro-imidazo[2,1-b]thiazolium bromide], the inhibition at 0.5 µg/tick was determined as 6%, the inhibition at 1 µg/tick was 52%, the inhibition at 2 µg/tick was 50% and the inhibition at 4 µg/tick stood at 90%. Moreover, the inhibition at 8 µg/tick turned out to be 100% and the inhibition at 10 µg/tick was determined as 100%.

For the compound `CCCCCCCCCCCCCCC[N+]1=C2SC(C)=C(c3ccccc3)N2CC1` [Example 43], the inhibition at 0.5 µg/tick turned out to be 4%, the inhibition at 1 µg/tick is 23%, the inhibition at 2 µg/tick was 72% and the inhibition at 4 µg/tick turned out to be 96%. Moreover, the inhibition at 8 µg/tick was 100% and the inhibition at 10 µg/tick was found to be 100%.

As for `CCCCCCCCCCCCCCCCC[N+]1=C2SC(C)=C(c3ccccc3)N2CC1` [Example 44], the inhibition at 0.5 µg/tick is 0%, the inhibition at 1 µg/tick was 63%, the inhibition at 2 µg/tick came to 89% and the inhibition at 4 µg/tick is 93%. In addition, the inhibition at 8 µg/tick came to 100% and the inhibition at 10 µg/tick is 100%.

`CCCCCCCCCCCCCCCCCC[N+]1=C2SC(C)=C(c3ccccc3)N2CC1` [Example 45]: the inhibition at 10 µg/tick was 88%.

As for `CCCCCCCCCC[N+]1=C2SC(C)=C(c3ccccc3)N2CC1` [Example 46], the inhibition at 10 µg/tick was found to be 95%.
